Read-outs that look alike come from different tables or passages of the source.
Key:
in vitro = conditions: human, Caco-2, pH 7.4
Procedure: (§1) Cells of the human colon adenocarcinoma cell line, Caco-2, were grown in Dulbecco’s Modified Eagle Medium (DMEM) supplemented with 10% fetal bovine serum (FBS), 1% L-glutamine, 1% non-essential amino acid, and 0.5% antibiotic–antimycotic solution [20]. Caco-2 cells were harvested with trypsin-EDTA and seeded on polycarbonate filters (pore size: 0.3 μm, growth area: 0.9 cm^2, 12 wells/plate, Beckton Dickinson Bioscience, Bedford, MA, USA) at a density of 1.8 × 10^5 cells/well. The culture medium was changed every 2 days. The monolayer was used for in vitro transport studies, 17–20 days after seeding.
(§2) In transport studies using Caco-2, Calu-3, MDCK, and MucilAir, a transport medium (TM; Hank’s balanced salts solution supplemented with 15 mM glucose and 10 mM HEPES good buffer, pH 7.4) was used. […] The permeability of mannitol across MucilAir was cited from the literature.

[1] = In vitro transepithelial transport study across MucilAir tissues; conditions: human, pH 7.4
[2] = In vitro transepithelial transport study across MDCK monolayers; conditions: dog, pH 7.4
Procedure: (§3) The epithelial Mardi–Darby canine kidney cell line (MDCK) cells were grown in Modified α-Eagle Medium supplemented with 10% FBS and 0.5% antibiotic–antimycotic solution [13]. MDCK cells were harvested with trypsin-EDTA and seeded on polycarbonate filters (pore size: 0.3 μm, growth area: 0.9 cm^2, 12 wells/plate, Beckton Dickinson Bioscience) at a density of 1.8 × 10^5 cells/well. The culture medium was changed every 2 days. The monolayer was used for in vitro transport studies, 6–7 days after seeding.
as §2

[3] = cited from earlier work
MDCK [4] = system: MDCK; design: method as in PMID 23200901; conditions: [14C] D-mannitol; cited from the previous report; cited from earlier work
MucilAir [5] = system: MucilAir; design: method as in PMID 24216300; conditions: [3H] mannitol; cited from the previous report; cited from earlier work
MucilAir [6] = conditions: pH 7.4
EpiAirway = experiment: In vitro transepithelial transport study across EpiAirway tissues
Procedure: Upon arrival, the primary human tracheal/bronchial epithelial cell system, EpiAirway, and the primary human bronchial epithelial cell system, MucilAir, were transferred to the well filled with 0.9 mL assay medium for EpiAirway and 0.7 mL MucilAir culture medium, which are serum free and contain growth factors and phenol red and are supplemented by default with antibiotics (penicillin/streptomycin). Both tissues were subsequently placed in an incubator with 5% CO2 at 37 °C. Both tissues were cultured in an air–liquid interface condition. EpiAirway tissues were used for the transport study following the overnight equilibration in assay medium. The mucous surface of MucilAir tissues was washed with 0.2 mL culture medium 2 days before the experiment in order to adjust the mucous level of each well. The permeation experiment using EpiAirway and MucilAir was conducted according to the manufacturer’s instructions.
In the transport study using EpiAirway, all the procedures were based on the Drug Delivery Protocol established by MatTek Corporation (https://www.mattek.com/wp-content/uploads/EpiAirway-Drug-Delivery-Protocol.pdf), and carried out in Absorption Systems LP. Dulbecco’s Phosphate Buffered Saline (DPBS) without Ca^2+ and Mg^2+ (pH 7.4) was used as the assay buffer. […] Radioactivity was 2 µCi/mL for the dosed [^3H] inulin and 0.5 µCi/mL for the dosed [^14C] mannitol. […]

Calu-3 = experiment: In vitro transepithelial transport study across Calu-3 monolayers
Procedure: as §3, with “Cells of the human bronchial submucosal gland carcinoma” for “The epithelial Mardi–Darby canine kidney”, “line, Calu-3,” for “line (MDCK) cells”, “DMEM nutrient mixture F-12 HAM” for “Modified α-Eagle Medium”, “[21]. Calu-3” for “[13]. MDCK”, “4.5” for “1.8”, “9–10” for “6–7”
as §2

Caco-2 = experiment: in vitro
Procedure: as §1, §2

MDCK [7] = experiment: in vitro; conditions: pH 7.4
Procedure: as §3, §2

[8] = nasal application to rats, AUCn/AUCiv; mean ± S.E.; determined in this study by the same method as ref 11
Procedure: Under anesthesia by intraperitoneal sodium pentobarbital (50 mg/kg, Nembutal, Abbott Laboratories, Abbott Park, IL, USA), the right femoral artery was cannulated with polyethylene tubing (SP-31, Natsume, Tokyo, Japan) for the collection of blood samples. […] Blood samples were collected from arterial tubing in heparinized tubes at predetermined time intervals for 120 min. The blood was centrifuged to obtain the plasma.
Under light isoflurane anesthesia, the right femoral artery was cannulated with polyethylene tubing. A drug dissolved in 5 µL of phosphate buffer saline (pH 7.4) was instilled at 1 cm depth from the nostril by microsyringe. Thereafter, animals were kept in a cage (KN-326-III, Natsume, Tokyo, Japan) throughout the experiment. It usually took 5 min after drug instillation for the rat to recover from the anesthesia. Blood samples were collected for 360 min after drug administration. During this period, the animal was allowed free access to water.
Fractional nasal absorption (Fn) was calculated as follows:Fn = AUCn/AUCiv(2) where AUCn and AUCiv are the area under the concentration–time profile following the nasal and intravenous administration of the drug. AUC was calculated according to the trapezoidal rule up to the last sampling point and extrapolation after the last sampling point.

[9] = apical to basal, 10 µM, pH 7.4, 37 °C, up to 60 min, mean ± S.E. of 3–4 experiments, inulin as [14C] inulin, mannitol as [14C] D-mannitol

With `Nc1nc2c(ncn2COCCO)c(=O)[nH]1` [Acyclovir, acyclovir] the Papp at 60 min, 10 µM (in vitro) was 1.29 ± 0.28 ×10⁻⁶ cm/s, the Papp at 60 min, 10 µM [1] was 0.48 ± 0.05 ×10⁻⁶ cm/s and the Papp at 60 min, 10 µM [2] was 0.61 ± 0.23 ×10⁻⁶ cm/s.
In the case of `OC[C@@H](O)[C@@H](O)[C@H](O)[C@H](O)CO` [Mannitol, mannitol], the “Fractional Absorption (Fn)” value ([3]; rat, in vivo) is given as 52.9 ± 3.4 *^3%, the “Permeability (Papp) MDCK” value (MDCK [4]) is given as 0.18 ± 0.05 *^3,b ×10^−6cm/s and the Papp at 60 min, 10 µM (in vitro) is given as 0.92 ± 0.15 ×10⁻⁶ cm/s. For the same compound, the “Permeability (Papp) MucilAir” value (MucilAir [5]) was 0.2 ± 0.0 *^4,c ×10^−6cm/s.
For `Nc1ccc(S(=O)(=O)O)cc1` [Sulfanilic acid, sulfanilic acid], the “Permeability (Papp) MucilAir” value (MucilAir [6]) is given as 0.58 ± 0.15 ×10^−6cm/s, the “Permeability (Papp) EpiAirway” value (EpiAirway; pH 7.4) is given as 2.78 ± 0.40 ×10^−6cm/s and the “Fractional Absorption (Fn)” value ([3]; rat, in vivo) is given as 82.7 ± 9.0%. For the same compound, the “Permeability (Papp) Calu-3” value (Calu-3; pH 7.4) was 0.75 ± 0.05 ×10^−6cm/s, the “Permeability (Papp) Caco-2” value (Caco-2; Caco-2, pH 7.4) was 0.58 ± 0.14 ×10^−6cm/s and the “Permeability (Papp) MDCK” value (MDCK [7]) was 0.43 ± 0.04 ×10^−6cm/s.
In the case of inulin, the “Permeability (Papp) EpiAirway” value (EpiAirway; apical to basal, 10 µM, DPBS pH 7.4, 37 °C, up to 60 min, mean ± S.E. of 3–4 experiments, inulin as [3H] inulin, mannitol as [14C] D-mannitol) is given as 2.83 ± 0.20 *^2 ×10^−6cm/s, the “Fractional Absorption (Fn)” value ([3]; nasal application to rats, AUCn/AUCiv, mean ± S.E., inulin as [14C] inulin, mannitol as [14C] D-mannitol) is given as 12.4 ± 2.0 *^1% and the “Permeability (Papp) Calu-3” value (Calu-3; [9]) is given as 0.30 ± 0.09 *^1 ×10^−6cm/s. The “Permeability (Papp) Caco-2” value (Caco-2; [9]) was 0.34 ± 0.20 *^1 ×10^−6cm/s.
Compound `C=C[C@H]1C[N@@]2CC[C@H]1C[C@@H]2[C@@H](O)c1ccnc2ccc(OC)cc12` [Quinidine, quinidine] has a Papp at 60 min, 10 µM [1] of 18.6 ± 1.93 ×10⁻⁶ cm/s and a Papp at 60 min, 10 µM [2] of 11.6 ± 1.31 ×10⁻⁶ cm/s.
In the case of `CN(Cc1cnc2nc(N)nc(N)c2n1)c1ccc(C(=O)N[C@@H](CCC(=O)O)C(=O)O)cc1` [Methotrexate, methotrexate], the Papp at 60 min, 10 µM (in vitro) is reported as 0.29 ± 0.02 ×10⁻⁶ cm/s, the Papp at 60 min, 10 µM [1] is reported as 0.31 ± 0.06 ×10⁻⁶ cm/s and the Papp at 60 min, 10 µM [2] is reported as 0.09 ± 0.03 ×10⁻⁶ cm/s.
For `Cc1cc(=O)n(-c2ccccc2)n1C` [Antipyrine, antipyrine], the “Fractional Absorption (Fn)” value [8] was 96.3 ± 4.2% and the Papp at 60 min, 10 µM ([2]; MDCK) was 32.5 ± 3.71 ×10⁻⁶ cm/s.
